Results taken from patent publication US6528043B2, “Composition containing sapogenin” (L'Oreal, priority 1999, dated 2003).

Experiment: Maximum amount of diosgenin which can be dissolved at 50° C. (procedure repeated, varying the amount of diosgenin)
Type: physicochemical
Procedure: The above compositions were prepared in the following way. 100 mg of diosgenin were weighed out and placed in a hermetic pillbox, to which 4.9 g of the solvent(s) were added with magnetic stirring at 25° C. for not more than one hour. In the event that the diosgenin was not dissolved after one hour, the suspension was heated with stirring to 50° C. on a waterbath and then, in the absence of dissolution of the diosgenin after one hour at this temperature, the temperature of the suspension was raised to 70° C.
The above procedure was repeated, varying the amount of diosgenin placed in solution. It was thus shown that the maximum amount of diosgenin which can be dissolved at 50° C. in the mixture of solvents was 2%, whereas it was only 1% in each of the solvents taken individually.
The above procedure was repeated, varying the amount of diosgenin placed in solution. It was thus shown that the maximum amount of diosgenin which can be dissolved at 50° C. in the mixture of solvents was 4%, whereas it was only 1% in each of the solvents taken individually.
The above procedure was repeated, varying the amount of diosgenin placed in solution. It was thus shown that the maximum amount of diosgenin which can be dissolved at 50° C. in the mixture of solvents was 3%, whereas it was only 1% in each of the solvents taken individually.
The amount of diosgenin placed in solution was then varied. It was thus shown that the maximum amount of diosgenin which can be dissolved at 50° C. in the mixture of solvents was 3%, whereas it was only 1% in the ester and 2% in the UV screening agent.

In the case of `C[C@@H]1CC[C@@]2(OC1)O[C@H]1C[C@H]3[C@@H]4CC=C5C[C@@H](O)CC[C@]5(C)[C@H]4CC[C@]3(C)[C@H]1[C@@H]2C` [diosgenin, spirost-5-en-3-beta-ol], the “maximum amount of diosgenin which can be dissolved” value (from here on “maximum amount”) (50/50 mixture of isononyl isononanoate and hexyldecanol) is reported as 3%, the “maximum amount” value (50/50 mixture of isononyl isononanoate and octyl methoxycinnamate) is reported as 3% and the “maximum amount” value (50/50 mixture of isopropyl myristate and hexyldecanol) is reported as 4%. For the same compound, the “maximum amount” value (50/50 mixture of triglyceryl triisostearate and hexyldecanol) was 2%, the “maximum amount” value (hexyldecanol taken individually) was 1% and the “maximum amount” value (isononyl isononanoate (ester) alone) was 1%. For the same compound, the “maximum amount” value (isopropyl myristate taken individually) was 1%, the “maximum amount” value (octyl methoxycinnamate (UV screening agent) alone) was 2% and the “maximum amount” value (triglyceryl triisostearate taken individually) was 1%.
